The source of these data is patent publication US8623883B2, “4-phenylamino-quinazolin-6-yl-amides” (Warner-Lambert Company LLC, priority 2004, dated 2014).

The nature of one series: Aqueous solubility. The format is physicochemical.
The target in another series is ErbB4 (Homo sapiens, UniProt Q15303). Description: ELISA-based erbB kinase assay (ErbB4). In kind it is biochemical. As to conditions: GST-erbB4 cytoplasmic fusion protein, 20 uM ATP, poly-Glu-Tyr substrate. An excerpt: (§1) ErbB1, erbB2 and erbB4 cytoplasmic fusion proteins were made by cloning the erbB1 sequence (Met-668 to Ala1211), erbB2 (Ile-675 to Val-1256) and erbB4 sequence (Gly-259 to Gly-690) into the baculoviral vector pFastBac using Polymerase Chain Reaction (PCR). Proteins were expressed in Baculovirus-infected Sf9 insect cells as Glutathione S-Transferase (GST) fusion proteins. The proteins were purified by affinity chromatography using glutathione sepharose beads.
Sequence of ErbB4 (Q15303 26-1308 limits assumed): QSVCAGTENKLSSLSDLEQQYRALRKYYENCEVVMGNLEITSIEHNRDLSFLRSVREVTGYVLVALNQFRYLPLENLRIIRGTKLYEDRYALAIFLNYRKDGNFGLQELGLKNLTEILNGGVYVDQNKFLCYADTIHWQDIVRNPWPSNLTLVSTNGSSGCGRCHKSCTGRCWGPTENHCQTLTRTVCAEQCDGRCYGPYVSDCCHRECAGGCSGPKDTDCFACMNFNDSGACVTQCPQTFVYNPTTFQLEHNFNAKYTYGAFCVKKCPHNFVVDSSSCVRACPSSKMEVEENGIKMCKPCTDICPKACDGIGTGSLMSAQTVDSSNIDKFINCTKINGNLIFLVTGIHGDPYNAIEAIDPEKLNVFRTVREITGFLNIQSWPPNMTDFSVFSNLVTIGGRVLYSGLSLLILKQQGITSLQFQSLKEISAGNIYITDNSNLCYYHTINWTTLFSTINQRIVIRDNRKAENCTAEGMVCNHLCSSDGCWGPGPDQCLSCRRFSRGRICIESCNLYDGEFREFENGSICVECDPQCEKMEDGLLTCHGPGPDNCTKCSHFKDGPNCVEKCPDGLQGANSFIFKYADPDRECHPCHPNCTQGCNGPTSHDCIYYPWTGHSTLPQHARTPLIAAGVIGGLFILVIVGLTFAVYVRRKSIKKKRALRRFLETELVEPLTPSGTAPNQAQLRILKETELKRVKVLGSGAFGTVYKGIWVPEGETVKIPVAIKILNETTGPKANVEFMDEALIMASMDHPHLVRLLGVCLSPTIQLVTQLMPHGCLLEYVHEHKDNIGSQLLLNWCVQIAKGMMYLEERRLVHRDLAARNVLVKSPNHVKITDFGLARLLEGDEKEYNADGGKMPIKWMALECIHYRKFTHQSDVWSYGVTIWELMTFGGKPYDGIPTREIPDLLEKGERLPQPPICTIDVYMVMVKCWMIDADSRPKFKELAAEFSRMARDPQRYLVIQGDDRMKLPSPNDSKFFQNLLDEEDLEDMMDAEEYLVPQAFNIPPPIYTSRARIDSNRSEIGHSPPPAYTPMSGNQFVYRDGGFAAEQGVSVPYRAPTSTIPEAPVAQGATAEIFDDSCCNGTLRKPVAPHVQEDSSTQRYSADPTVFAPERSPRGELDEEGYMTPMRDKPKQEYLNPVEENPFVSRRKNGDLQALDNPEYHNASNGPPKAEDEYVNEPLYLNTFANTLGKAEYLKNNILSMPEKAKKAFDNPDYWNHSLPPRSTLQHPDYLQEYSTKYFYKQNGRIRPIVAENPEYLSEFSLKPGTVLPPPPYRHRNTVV
(§2) Inhibition of erbB tyrosine kinase activity was assessed using an ELISA-based receptor tyrosine kinase assay. Kinase reactions (50 mM HEPES, pH 7.4, 125 mM NaCl, 10 mM MgCl2, 100 μM sodium orthovanadate, 2 mM dithiothreitol, 20 uM ATP, test compound or vehicle control and 1-5 nM GST-erbB per 50 uL reaction) were run in 96-well plates coated with 0.25 mg/ml poly-Glu-Tyr (Sigma). The reactions were incubated for 6 minutes at room temperature while shaking. Kinase reactions were stopped by removal of reaction mixture, then wells were washed with wash buffer comprising 3% Bovine Serum Albumin and 0.1% Tween 20 in Phosphate Buffered Saline (PBS). Phosphorylated tyrosine residues were detected by adding 0.2 μg/ml anti-phosphotyrosine antibody (Oncogene Ab-4; 50 μL/well) coupled to Horse Radish Peroxidase (HRP) for 25 minutes while shaking at room temperature. The antibody was removed, and plates were washed (3% BSA and 0.1% Tween 20 in PBS). HRP substrate 3,3′,5,5′-tetramethylbenzidene (SureBlueTMB, Kirkegaard & Perry Labs) was added (50 μL per well) and incubated for 10-20 minutes while shaking at room temperature. The TMB reaction was stopped with the addition of 50 μL stop solution (0.09 N H2SO4). The signal was quantified by measuring absorbance at 450 nm. IC50 values were determined for test compounds using Microsoft Excel.

For a further series, the target named is ErbB2 (Homo sapiens (Human), UniProt P04626). The series can be described thus: ELISA-based erbB kinase assay (ErbB2). The format is biochemical. As to conditions: GST-erbB2 cytoplasmic fusion protein, 20 uM ATP, poly-Glu-Tyr substrate.
Sequence of ErbB2 (P04626 675-1255 limits assumed): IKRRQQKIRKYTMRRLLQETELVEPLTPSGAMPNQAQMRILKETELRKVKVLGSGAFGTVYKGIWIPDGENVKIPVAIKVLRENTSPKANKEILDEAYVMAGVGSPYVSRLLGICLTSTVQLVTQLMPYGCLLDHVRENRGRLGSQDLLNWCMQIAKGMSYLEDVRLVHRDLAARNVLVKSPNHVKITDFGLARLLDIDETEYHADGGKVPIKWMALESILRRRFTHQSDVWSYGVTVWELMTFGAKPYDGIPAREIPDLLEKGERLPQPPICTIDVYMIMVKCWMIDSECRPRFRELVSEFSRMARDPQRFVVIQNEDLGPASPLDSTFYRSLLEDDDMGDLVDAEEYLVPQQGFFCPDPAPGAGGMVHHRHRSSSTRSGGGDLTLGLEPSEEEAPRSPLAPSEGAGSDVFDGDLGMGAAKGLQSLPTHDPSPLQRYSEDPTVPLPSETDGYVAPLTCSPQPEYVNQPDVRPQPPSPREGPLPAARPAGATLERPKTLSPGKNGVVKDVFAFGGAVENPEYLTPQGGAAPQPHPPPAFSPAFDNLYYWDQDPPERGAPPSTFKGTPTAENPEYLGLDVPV
From the text: as §1, §2

The next series concerns the target ErbB1 (Homo sapiens (Human), UniProt P00533). Description: ELISA-based erbB kinase assay (ErbB1). The format is biochemical. The conditions noted are these: GST-erbB1 cytoplasmic fusion protein, 20 uM ATP, poly-Glu-Tyr substrate.
From the text: as §1, §2

Converted amounts (≈) assume the structure as drawn.

By solubility is commonly meant the dissolved amount per volume that the medium holds. Lower therefore signals little dissolved substance. As a reminder, the IC50 is the concentration needed to halve the response being measured.

Sequence of ErbB1 (P00533 668-1210 limits assumed): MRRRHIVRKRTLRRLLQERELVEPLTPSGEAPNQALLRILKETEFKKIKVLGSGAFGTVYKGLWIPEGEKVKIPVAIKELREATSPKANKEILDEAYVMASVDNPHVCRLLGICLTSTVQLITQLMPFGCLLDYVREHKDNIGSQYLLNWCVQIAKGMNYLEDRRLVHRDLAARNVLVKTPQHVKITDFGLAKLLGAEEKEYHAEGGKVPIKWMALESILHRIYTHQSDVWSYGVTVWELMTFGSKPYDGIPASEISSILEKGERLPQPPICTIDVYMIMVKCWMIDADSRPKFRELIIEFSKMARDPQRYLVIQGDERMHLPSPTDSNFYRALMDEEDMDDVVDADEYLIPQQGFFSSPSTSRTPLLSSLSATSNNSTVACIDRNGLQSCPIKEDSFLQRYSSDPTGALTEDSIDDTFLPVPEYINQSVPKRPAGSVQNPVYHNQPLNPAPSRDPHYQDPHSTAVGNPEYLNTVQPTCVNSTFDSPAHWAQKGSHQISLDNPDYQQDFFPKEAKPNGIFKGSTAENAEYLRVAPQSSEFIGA

Take `COc1cc2ncnc(Nc3ccc(F)c(Cl)c3)c2cc1NC(=O)/C=C/CN1CCCCC1` [Example No. 2, 4-Piperidin-1-yl-but-2-enoic acid [4-(3-chloro-4-fluoro-phenylamino)-7-methoxy-quinazolin-6-yl]-amide]: in “Aqueous solubility” (aqueous medium, pH 6.3, aqueous buffer), the solubility was roughly 10 µg/mL (≈ 21.3 µM). Besides, in “Aqueous solubility” (at lower pHs (than 6.3)), the “change of aqueous solubility with pH” value is listed as “increases”.
For the molecule `O=C(/C=C/CN1CCCCC1)Nc1cc2c(Nc3ccc(F)c(Cl)c3)ncnc2cc1OCC(F)F` [Example No. 6, 4-Piperidine-1-yl-but-2-enoic acid [4-(3-chloro-4-fluoro-phenylamino)-7-(2,2-difluoro-ethoxy)-quinazolin-6-yl]-amide], the IC50 on ErbB4 was 154 nM; on ErbB2, 244 nM; against ErbB1, 9.87 nM.
Regarding `O=C(/C=C/CN1CCCCC1)Nc1cc2c(Nc3ccc(F)c(Cl)c3)ncnc2cc1OCCCN1CCOCC1` [Example No. 7, 4-Piperidin-1-yl-but-2-enoic acid [4-(3-chloro-4-fluoro-phenylamino)-7-(3-morpholin-4-yl-propoxy)-quinazolin-6-yl]-amide], the IC50 at ErbB4 turned out to be 61.5 nM; on ErbB1, 11.3 nM.
For the molecule `O=C(/C=C/CN1CCCCC1)Nc1cc2c(Nc3ccc(F)c(Cl)c3)ncnc2cc1OCCF` [Example No. 1, 4-Piperidin-1-yl-but-2-enoic acid [4-(3-chloro-4-fluoro-phenylamino)-7-(2-fluoro-ethoxy)-quinazolin-6-yl]-amide], the IC50 at ErbB4 turned out to be 77.5 nM; on ErbB1 it was 6.44 nM.
For the molecule `COc1cc2ncnc(Nc3ccc(F)c(Cl)c3)c2cc1NC(=O)/C=C/CN1CCCC(F)C1` (centres unmarked) [Example No. 8, 4-(3-Fluoro-piperidin-1-yl)-but-2-enoic acid [4-(3-chloro-4-fluoro-phenylamino)-7-methoxy-Quinazolin-6-yl]-amide], the IC50 against ErbB4 worked out at 234 nM; against ErbB2, 212 nM; against ErbB1, 45.3 nM.
With `COc1cc2ncnc(Nc3ccc(F)c(Cl)c3)c2cc1NC(=O)/C=C/CN1CCC(F)CC1` [Example No. 9, 4-(4-Fluoro-piperidin-1-yl)-but-2-enoic acid [4-(3-chloro-4-fluoro-phenylamino)-7-methoxy-quinazolin-6-yl]-amide], the IC50 on ErbB4 was 147 nM; against ErbB2, 247 nM.
In the case of `COc1cc2ncnc(Nc3ccc(F)c(Cl)c3)c2cc1NC(=O)/C=C/CN1CCCCCC1` [Example No. 10, 4-Azepan-1-yl-but-2-enoic acid [4-(3-chloro-4-fluoro-phenylamino)-7-methoxy-quinazolin-6-yl]-amide], the figures for the IC50 against ErbB4, against ErbB2 and at ErbB1 were 41.3 nM, 86 nM and 12.1 nM, respectively.
